# Where “and” joins values, the source holds several entries; their conditions need not be identical. Equal values may be shown once.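 Protocol summary: plate cells (96-well), add compound at 5 concentrations, incubate 48 h, interpolate endpoints linearly. Abbreviation: GI50, concentration required for 50% inhibition of growth. The concentration for full growth arrest is given as TGI.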
# What was measured:
# Assay in all cases: inhibition of tumour cell growth, NCI panel, 48 h
# [1] = test system: NCI-H460 lung
# [2] = test system: NCI-H23 lung
# [3] = test system: UO-31 renal
# [4] = test system: CAKI-1 renal
# [5] = test system: SR leukemia
# [6] = test system: BT-549 breast
# [7] = test system: SF-268 CNS
# [8] = test system: RPMI-8226 leukemia
# [9] = test system: NCI/ADR-RES ovarian
# [10] = test system: A549 NSCLC
# [11] = test system: T-47D breast
# [12] = test system: MCF7 breast
# [13] = test system: HL-60(TB) leukemia
# [14] = test system: SK-MEL-2 melanoma
# [15] = test system: MALME-3M melanoma
# [16] = test system: HCC-2998 colon
# [17] = test system: UACC-62 melanoma
# [18] = test system: CCRF-CEM leukemia
# [19] = test system: A498 renal
# [20] = test system: MOLT-4 leukemia
# [21] = test system: HOP-92 NSCLC
# [22] = test system: HT29 colon
# [23] = test system: EKVX NSCLC
# [24] = test system: HCT-116 colon
# [25] = test system: RXF 393 renal
# [26] = test system: ACHN renal
# [27] = test system: SNB-75 CNS
# [28] = test system: LOX IMVI melanoma
# [29] = test system: NCI-H226 lung
# [30] = test system: MDA-MB-231 breast
# [31] = test system: PC-3 prostate
# [32] = test system: SK-MEL-5 melanoma
# [33] = test system: SF-295 CNS
# [34] = test system: HS 578T breast
# [35] = test system: U251 CNS
# [36] = test system: IGROV1 ovarian
# [37] = test system: UACC-257 melanoma
# [38] = test system: HCT-15 colon
# [39] = test system: TK-10 renal
# [40] = test system: OVCAR-8 ovarian
# [41] = test system: DU-145 prostate
# [42] = test system: KM12 colon
# [43] = test system: SNB-19 CNS
# [44] = test system: K-562 leukemia
# [45] = test system: 786-0 renal
# [46] = test system: NCI-H522 lung
# [47] = test system: SW-620 colon
# [48] = test system: SN12C renal
# [49] = test system: OVCAR-3 ovarian
# [50] = test system: OVCAR-4 ovarian
# [51] = test system: SK-OV-3 ovarian
# [52] = test system: HOP-62 NSCLC
# [53] = test system: SF-539 CNS
# [54] = test system: OVCAR-5 ovarian
# [55] = test system: M14 melanoma
# [56] = test system: COLO 205 colon
structure (smiles),measurement,setting,value
C[C@@H](Oc1cc(-n2cnc3ccc(CN4CCN(C)CC4)cc32)sc1C(N)=O)c1ccccc1C(F)(F)F,GI50,[1],< 15.7 nM and 22.4 nM
same,TGI,[1],12500 nM and > 10000 nM
same,GI50,[2],< 11.4 nM and 14.5 nM
same,TGI,[2],13200 nM and > 10000 nM
same,GI50,[3],1670 nM and 776 nM
same,TGI,[3],16600 nM and > 10000 nM
same,GI50,[4],337 nM and 222 nM
same,TGI,[4],15100 nM and > 10000 nM
same,GI50,[5],< 10 nM and 5.14 nM
same,TGI,[5],1750 nM and 1440 nM
same,GI50,[6],74.6 nM and 139 nM
same,TGI,[6],15200 nM and > 10000 nM
same,GI50,[7],29.3 nM and 66.7 nM
same,TGI,[7],16300 nM and > 10000 nM
same,GI50,[8],54.6 nM and 38.4 nM
same,TGI,[8],13600 nM and > 10000 nM
same,GI50,[9],162 nM and 200 nM
same,TGI,[9],14300 nM and > 10000 nM
same,GI50,[10],21.1 nM and 30.6 nM
same,TGI,[10],10800 nM and > 10000 nM
same,GI50,[11],3350 nM
same,TGI,[11],21400 nM and > 10000 nM
same,GI50,[12],< 10 nM and 4.78 nM
same,TGI,[12],15200 nM and > 10000 nM
same,GI50,[13],< 10 nM and 5.95 nM
same,TGI,[13],< 17.9 nM
same,TGI,[14],> 10000 nM
same,GI50,[15],2810 nM and 2770 nM
same,TGI,[15],7620 nM and > 6990 nM
same,GI50,[16],< 16.1 nM and 39.7 nM
same,GI50,[17],32.6 nM and 38.2 nM
same,TGI,[17],16700 nM and > 10000 nM
same,GI50,[18],< 10 nM and 14.9 nM
same,TGI,[18],4240 nM and > 2070 nM
same,GI50,[19],61.5 nM and 34.1 nM
same,TGI,[19],982 nM and 187 nM
same,GI50,[20],< 10.7 nM and 11.2 nM
same,TGI,[20],4710 nM and 2760 nM
same,GI50,[21],34.2 nM and 191 nM
same,TGI,[21],947 nM and > 3140 nM
same,GI50,[22],< 10 nM and 4.02 nM
same,TGI,[22],6510 nM and > 10000 nM
same,TGI,[23],21600 nM and > 10000 nM
same,GI50,[24],< 12.5 nM and 13.9 nM
same,TGI,[24],12900 nM and > 10000 nM
same,GI50,[25],< 14.1 nM and 22.4 nM
same,TGI,[25],10200 nM and > 10000 nM
same,GI50,[26],442 nM and 156 nM
same,TGI,[26],15800 nM and > 10000 nM
same,GI50,[27],36.3 nM and 24.9 nM
same,GI50,[28],< 18 nM and 23.1 nM
same,TGI,[28],5500 nM and > 10000 nM
same,TGI,[29],19000 nM and > 10000 nM
same,TGI,[30],2650 nM and > 2790 nM
same,GI50,[31],< 19.2 nM and 29.3 nM
same,TGI,[31],15500 nM and > 10000 nM
same,GI50,[32],21.8 nM and 97.6 nM
same,TGI,[32],1510 nM and > 10000 nM
same,GI50,[33],48.6 nM
same,TGI,[33],> 10000 nM
same,GI50,[34],85.3 nM and 35 nM
same,TGI,[34],2530 nM
same,GI50,[35],< 13.7 nM and 25.5 nM
same,TGI,[35],15600 nM and > 10000 nM
same,GI50,[36],62.1 nM and 33.6 nM
same,TGI,[36],15100 nM and > 10000 nM
same,GI50,[37],2030 nM
same,TGI,[37],> 10000 nM
same,GI50,[38],45 nM and 43.2 nM
same,TGI,[38],12900 nM and > 10000 nM
same,GI50,[39],2690 nM and 1460 nM
same,TGI,[39],17300 nM and > 10000 nM
same,GI50,[40],< 15.3 nM and 14.6 nM
same,TGI,[40],13600 nM and > 10000 nM
same,GI50,[41],< 13.4 nM and 9.75 nM
same,TGI,[41],652 nM and 188 nM
same,GI50,[42],< 12 nM and 5.56 nM
same,TGI,[42],12700 nM and > 10000 nM
same,GI50,[43],23.3 nM and 16.2 nM
same,TGI,[43],15400 nM and > 10000 nM
same,GI50,[44],3.17 nM
same,GI50,[45],43.9 nM and 85.4 nM
same,TGI,[45],2040 nM and > 7110 nM
same,GI50,[46],< 10 nM and 5.31 nM
same,TGI,[46],36.9 nM
same,GI50,[47],< 10 nM and 4.62 nM
same,TGI,[47],12900 nM and > 10000 nM
same,GI50,[48],116 nM and 200 nM
same,TGI,[48],12100 nM and > 10000 nM
same,GI50,[49],< 15.2 nM and 5.28 nM
same,TGI,[49],16700 nM and > 10000 nM
same,GI50,[50],817 nM and 980 nM
same,TGI,[50],17500 nM and > 10000 nM
same,GI50,[51],25 nM and 67.3 nM
same,TGI,[51],1670 nM and > 10000 nM
same,GI50,[52],11.8 nM and 19.9 nM
same,TGI,[52],12700 nM and > 10000 nM
same,GI50,[53],36.9 nM and 30.2 nM
same,TGI,[53],2090 nM
same,GI50,[54],< 17.5 nM and 26.4 nM
same,TGI,[54],16600 nM and > 10000 nM
same,GI50,[55],12.3 nM
same,TGI,[55],2310 nM
same,GI50,[56],< 10 nM and 4.24 nM
same,TGI,[56],699 nM
